Results: ChEMBL document CHEMBL4811302, “Solid-phase synthesis of curcumin mimics and their anticancer activity against human pancreatic, prostate, and colorectal cancer cell lines” (Bioorg Med Chem, 2021)
Activity calls are given as the source filed them. The calls are words filed in the database; no cut-off is given here.

Tests used:
PANC-1 [1] = test: Antiproliferative activity against human PANC-1 cells assessed as reduction in cell growth at 100 uM incubated for 72 hrs by trypan blue assay relative to control; format: functional
SW480 [2] = test: Antiproliferative activity against human SW480 cells assessed as reduction in cell growth at 100 uM incubated for 72 hrs by trypan blue assay relative to control; format: functional
[3] = Stability of compound in simulated gastric fluid assessed as drug degradation at pH 1.2 at 1 mM measured after 48 hrs by HPLC analysis; format: ADME; conditions: read-out: Drug degradation
[4] = Stability of compound in alkaline phosphatase by HPLC analysis; format: ADME
PC-3 [5] = test: Antiproliferative activity against human PC-3 cells assessed as cell death at 100 uM incubated for 72 hrs by trypan blue assay (reference value: 3%); format: functional
PC-3 [6] = test: Antiproliferative activity against human PC-3 cells assessed as reduction in cell growth at 100 uM incubated for 72 hrs by trypan blue assay relative to control; format: functional
[7] = Stability of compound in human serum assessed as parent compound remaining measured upto 96 hrs by HPLC analysis; format: ADME, cell-free
PANC-1 [8] = test: Antiproliferative activity against human PANC-1 cells assessed as cell death at 100 uM incubated for 72 hrs by trypan blue assay relative to control; format: functional, cell-based
[9] = Stability of compound in simulated intestinal fluid assessed as parent compound remaining at pH 6.8 at 1 mM measured after 48 hrs by HPLC analysis; format: ADME; conditions: simulated gi fluid, pH 6.8, 48 h, 1000 µM
SW480 [10] = test: Antiproliferative activity against human SW480 cells assessed as cell death at 100 uM incubated for 72 hrs by trypan blue assay relative to control; format: functional, cell-based

Compound | inhibition (PANC-1 [1]) | inhibition (SW480 [2]) | degraded at 48 h, 1000 µM [3] | Stabilty [4] | Activity (PC-3 [5]) | inhibition (PC-3 [6]) | Stabilty [7] | Activity (PANC-1 [8]) | Stabilty [9] | inhibition at 100 µM (SW480 [2]) | Activity (SW480 [10]) | inhibition at 100 µM (PC-3 [6]) | inhibition at 100 µM (PANC-1 [1])
O=P([O-])(OCCc1ccc(O)cc1)OCCc1ccc(O)cc1.[Na+] | inactive | Active | < 5% | Stable | Active | Active | Stable | Active | Stable |  |  |  | 
COc1cc(CCOP(=O)([O-])OCCc2ccc(O)c(O)c2)ccc1O.[Na+] | inactive |  | < 5% | Stable | Active | Active | Stable | Active | Stable | 15% | Active |  | 
OCCc1ccc(O)cc1 [TYROSOL] | inactive |  |  |  | 7% |  |  | Active |  | 12% |  | 13% | 
COc1cc(CCO)ccc1O | inactive |  |  |  | Active | inactive |  | Active |  | 12% |  |  | 
O=P([O-])(OCCc1ccc(O)cc1)OCCc1ccc(O)c(O)c1.[Na+] | inactive | Active | < 5% | Stable | Active | Active | Stable | Active | Stable |  |  |  | 
O=P([O-])(OCCc1ccc(O)c(O)c1)OCCc1ccc(O)c(O)c1.[Na+] | inactive |  | < 5% | Stable | Active | Active | Stable | Active | Stable | 25% | Active |  | 
OCCc1ccc(O)c(O)c1 [HYDROXYTYROSOL] |  |  |  |  |  |  |  | Active |  | 38% |  | 33% | 15%
COc1cc(CCOP(=O)([O-])OCCc2ccc(O)cc2)ccc1O.[Na+] | inactive | Active | < 5% | Stable | 23% |  | Stable | Active | Stable |  |  | 28% | 
COc1cc(CCOP(=O)([O-])OCCc2ccc(O)c(OC)c2)ccc1O.[Na+] | inactive | Active | < 5% | Stable | Active | Active | Stable | Active | Stable |  |  |  | 
